Reference: PMC8286840, “Identifying SARS-CoV-2 antiviral compounds by screening for small molecule inhibitors of Nsp3 papain-like protease” (Biochemical Journal, 2021)
Where a name gives a salt, the structure may show the parent alone. Read-outs that look alike come from different tables or passages of the source.

How the values were obtained:
[1] = target: T1, SARS-CoV-2 PLpro (nsp3 1564–1878) (Severe acute respiratory syndrome coronavirus 2, UniProt P0DTD1); assay: biochemical; parameters: FRET-quenched peptide (Pro3) cleavage by PLpro, 10 min pre-incubation, slope over 20 min, normalised to no-compound control; settings: low concentration screen
Experimental: The plates were organized with columns 3–22 containing the compounds; the remaining columns were used for reaction controls including substrate only and substrate with enzyme but no compound (Figure 3Aii). The PLpro enzyme was pre-incubated with the compounds for 10 min, and then the reaction was initiated by the addition of substrate. […] We incubated the inhibitors with PLpro before the enzymatic reaction so that the slow-binding inhibitors will not be missed out [21]. […] Fluorescence was read on a Spark multimode microplate reader (Tecan) with an excitation wavelength at 330 nm and emission wavelength at 420 nm. […] An amount of 5 µl of the enzyme was pre-incubated with compounds for 10 min before the addition of 15 µl substrate. Fluorescence was monitored at 2 min for 20 min with 3 min intervals giving a total of seven readings.

[2] = target: T1, SARS-CoV-2 PLpro (nsp3 1564–1878); assay: biochemical; parameters: FRET-quenched peptide (Pro3) cleavage by PLpro, 10 min pre-incubation, slope over 20 min, normalised to no-compound control; settings: high concentration screen
[3] = Well no.=6632, read-out: % of control remaining
[4] = Well no.=4974, read-out: % of control remaining
[5] = Well no.=322, read-out: % of control remaining
[6] = Well no.=5510, read-out: % of control remaining
[7] = Well no.=6271, read-out: % of control remaining
[8] = Well no.=3765, read-out: % of control remaining
[9] = Well no.=8822, read-out: % of control remaining
[10] = Well no.=8244, read-out: % of control remaining
[11] = Well no.=1135, read-out: % of control remaining
[12] = Well no.=3749, read-out: % of control remaining
[13] = Well no.=5227, read-out: % of control remaining
[14] = Well no.=151, read-out: % of control remaining
[15] = Well no.=5414, read-out: % of control remaining
[16] = Well no.=7397, read-out: % of control remaining
[17] = Well no.=7815, read-out: % of control remaining
[18] = Well no.=2211, read-out: % of control remaining
[19] = Well no.=1019, read-out: % of control remaining
[20] = Well no.=6592, read-out: % of control remaining
[21] = Well no.=8133, read-out: % of control remaining
[22] = Well no.=4816, read-out: % of control remaining
[23] = Well no.=3347, read-out: % of control remaining
[24] = Well no.=1432, read-out: % of control remaining
[25] = Well no.=3228, read-out: % of control remaining
[26] = Well no.=7301, read-out: % of control remaining
[27] = read-out: % of control remaining, Well no.=1861
[28] = read-out: % of control remaining, Well no.=6467
[29] = Well no.=229, read-out: % of control remaining
[30] = Well no.=3270, read-out: % of control remaining
[31] = Well no.=2229, read-out: % of control remaining
[32] = Well no.=3342, read-out: % of control remaining
[33] = Well no.=4815, read-out: % of control remaining
[34] = Well no.=1975, read-out: % of control remaining
[35] = Well no.=6878, read-out: % of control remaining
[36] = Well no.=788, read-out: % of control remaining
[37] = Well no.=8407, read-out: % of control remaining
[38] = Well no.=1817, read-out: % of control remaining

`OC[C@H]1O[C@@H](n2cnc3c(NCc4ccco4)ncnc32)[C@H](O)[C@@H]1O` [Kinetin riboside] was tested, and the remaining activity at 1.25 µM [1, 3] was 91.8% and the remaining activity at 3.75 µM [2, 3] was 96.7%.
In the case of `Nc1ccc(C(=O)O)c(O)c1` [Sodium 4-Aminosalicylate], the remaining activity at 1.25 µM [1, 4] is reported as 101% and the remaining activity at 3.75 µM [2, 4] is reported as 95.6%.
Compound `CC(C[N+](C)(C)C)OC(N)=O` (stereo not shown) [Bethanechol chloride] has a remaining activity at 1.25 µM [1, 5] of 102% and a remaining activity at 3.75 µM [2, 5] of 102%.
For `OCCN1CCN(CCCN2c3ccccc3C=Cc3ccccc32)CC1` [Opipramol dihydrochloride], the remaining activity at 1.25 µM [1, 6] was 97.5% and the remaining activity at 3.75 µM [2, 6] was 101%.
`CN(C)CCc1c[nH]c2ccc(CS(=O)(=O)N3CCCC3)cc12` [Almotriptan (malate)] showed a remaining activity at 1.25 µM [1, 7] of 106% and a remaining activity at 3.75 µM [2, 7] of 106%.
Compound `COc1ccc(/C=C/c2cc(OC)cc(=O)o2)cc1` [Yangonin] has a remaining activity at 1.25 µM [1, 8] of 90.2% and a remaining activity at 3.75 µM [2, 8] of 90.6%.
Compound `CCCc1cc(-c2nc(-c3ccc(C)cc3)cs2)ccn1` [Fatostatin HBr] has a remaining activity at 1.25 µM [1, 9] of 94.2% and a remaining activity at 3.75 µM [2, 9] of 92.8%.
`OC[C@@H](O)[C@@H](O)[C@H](O)[C@@H](O)CO` [Sorbitol] was tested, and the remaining activity at 1.25 µM [1, 10] was 100% and the remaining activity at 3.75 µM [2, 10] was 99.8%.
With `CNC(=O)OCC[N+](C)(C)C` [Methylcarbamylcholine chloride] the remaining activity at 1.25 µM [1, 11] was 95.1% and the remaining activity at 3.75 µM [2, 11] was 96.5%.
Work on `O=C1C=C2C=C[C@@H]3C[C@@]2(O1)[C@H]1CCCCN31` [Securinine] yielded a remaining activity at 1.25 µM [1, 12] of 99.6% and a remaining activity at 3.75 µM [2, 12] of 100%.
Work on `O=C(O)CNC(=O)c1c(O)c2ccccc2n(Cc2ccccc2)c1=O` [IOX2] yielded a remaining activity at 1.25 µM [1, 13] of 101% and a remaining activity at 3.75 µM [2, 13] of 95.1%.
`Nc1cc(Cl)c(NC2=NCCN2)c(Cl)c1` [p-Aminoclonidine hydrochloride] gave a remaining activity at 1.25 µM [1, 14] of 102% and a remaining activity at 3.75 µM [2, 14] of 102%.
Compound `CC(C)(C)C(=O)OCOC(=O)[C@@H]1N2C(=O)[C@@H](/N=C/N3CCCCCC3)[C@H]2SC1(C)C` [Pivmecillinam] has a remaining activity at 1.25 µM [1, 15] of 93.3% and a remaining activity at 3.75 µM [2, 15] of 98.6%.
`OC[C@H]1O[C@@H](n2cnc3c(O)nc(O)nc32)[C@H](O)[C@@H]1O` [Xanthosine] gave a remaining activity at 1.25 µM [1, 16] of 106% and a remaining activity at 3.75 µM [2, 16] of 107%.
In the case of `Cc1noc(-c2ccc(-c3ccc(CC(=O)O)cc3)cc2)c1NC(=O)O[C@H](C)c1ccccc1` [AM095], the remaining activity at 1.25 µM [1, 17] is reported as 101% and the remaining activity at 3.75 µM [2, 17] is reported as 94%.
`COC(=O)N/N=C/c1c[n+]([O-])c2ccccc2[n+]1[O-]` [Carbadox] was tested, and the remaining activity at 1.25 µM [1, 18] was 98.3% and the remaining activity at 3.75 µM [2, 18] was 93.2%.
Work on `Fc1ccc(C(OCCCc2cnc[nH]2)c2ccc(F)cc2)cc1` [3-(1H-Imidazol-4-yl)propyl di(p-fluorophenyl)methyl ether hydrochloride] yielded a remaining activity at 1.25 µM [1, 19] of 93.6% and a remaining activity at 3.75 µM [2, 19] of 95.3%.
`Cc1c(-c2ccc(N3CCc4cccc(C(=O)Nc5nc6ccccc6s5)c4C3)nc2C(=O)O)cnn1CC12CC3CC(CC(C3)C1)C2` [A-1331852] showed a remaining activity at 1.25 µM [1, 20] of 102% and a remaining activity at 3.75 µM [2, 20] of 93.5%.
For `O=C(Nc1ccc(C(O)(C(F)(F)F)C(F)(F)F)cc1)c1ccccc1Cl` [SR0987], the remaining activity at 1.25 µM [1, 21] was 95.1% and the remaining activity at 3.75 µM [2, 21] was 99.6%.
`COc1cc(Nc2ncc(F)c(Nc3ccc4c(n3)NC(=O)C(C)(C)O4)n2)cc(OC)c1OC` [R406] gave a remaining activity at 1.25 µM [1, 22] of 101% and a remaining activity at 3.75 µM [2, 22] of 99.1%.
`C[C@@H]1O[C@@H](OC[C@H]2O[C@@H](Oc3cc(O)c4c(c3)O[C@H](c3ccc(O)cc3)CC4=O)[C@H](O)[C@@H](O)[C@@H]2O)[C@H](O)[C@H](O)[C@H]1O` [Narirutin] gave a remaining activity at 1.25 µM [1, 23] of 91.9% and a remaining activity at 3.75 µM [2, 23] of 93.8%.
Compound `CCOC(=O)C1=C[C@]2(CC)CCCN3CCc4c(n1c1ccccc41)[C@@H]32` [Vinpocetine] has a remaining activity at 1.25 µM [1, 24] of 99%, a remaining activity at 1.25 µM ([1]; Well no.=2158, read-out: % of control remaining) of 98.7% and a remaining activity at 1.25 µM [1, 25] of 103%. For the same compound, the remaining activity at 3.75 µM [2, 24] was 102% and the remaining activity at 3.75 µM [2, 25] was 108%.
`C[C@H](O)CC(=O)O` [(S)-3-Hydroxybutanoic acid] showed a remaining activity at 1.25 µM [1, 26] of 109% and a remaining activity at 3.75 µM [2, 26] of 105%.
Compound `C[C@@H]1C[C@H]2[C@@H]3CCC4=CC(=O)C=C[C@]4(C)[C@@]3(F)[C@@H](O)C[C@]2(C)[C@@]1(O)C(=O)CO` [Dexamethasone] has a remaining activity at 1.25 µM [1, 27] of 99.1%, a remaining activity at 1.25 µM [1, 28] of 96.6% and a remaining activity at 3.75 µM [2, 27] of 100%. The remaining activity at 3.75 µM [2, 28] was 98.7%.
For `COc1ccccc1N1CCN(CCN2C(=O)CC3(CCCC3)CC2=O)CC1` [BMY 7378 dihydrochloride], the remaining activity at 1.25 µM [1, 29] was 98.4% and the remaining activity at 3.75 µM [2, 29] was 100%.
For `COc1cc2c(cc1OC)[C@@]13CC[N+]4([O-])CC5=CCO[C@H]6CC(=O)N2[C@H]1[C@H]6[C@H]5C[C@@H]34` (stereo partly shown) [Brucine-N-oxide], the remaining activity at 1.25 µM [1, 30] was 99.2% and the remaining activity at 3.75 µM [2, 30] was 102%.
Compound `CN(C)CCC(c1ccc(Cl)cc1)c1ccccn1` (stereo not shown) [Chlorpheniramine] has a remaining activity at 1.25 µM [1, 31] of 93.7% and a remaining activity at 3.75 µM [2, 31] of 95.1%.
Work on `Cc1cc(=O)oc2cc(O)ccc12` [4-Methylumbelliferone] yielded a remaining activity at 1.25 µM [1, 32] of 94% and a remaining activity at 3.75 µM [2, 32] of 91.9%.
Compound `C[C@]12CC[C@H]3[C@@H](CC[C@@]45O[C@@H]4C(O)=C(C#N)C[C@]35C)[C@@H]1CC[C@@H]2O` [Trilostane] has a remaining activity at 1.25 µM [1, 33] of 101% and a remaining activity at 3.75 µM [2, 33] of 107%.
`Cn1c(NCCN(CCO)CCCc2ccc([N+](=O)[O-])cc2)cc(=O)n(C)c1=O` [Nifekalant] gave a remaining activity at 1.25 µM [1, 34] of 105% and a remaining activity at 3.75 µM [2, 34] of 102%.
For `COc1cc2c(cc1OC(C)C)[C@H](c1ccc(Cl)cc1)N(c1ccc(N(C)C[C@H]3CC[C@H](N4CCN(C)C(=O)C4)CC3)cc1)C(=O)C2` [NVP-CGM097 (sulfate)], the remaining activity at 1.25 µM [1, 35] was 95.2% and the remaining activity at 3.75 µM [2, 35] was 89.6%.
Work on `CCCn1c(=O)c2[nH]c(-c3ccc(OCC(=O)Nc4ccc(C#N)cc4)cc3)nc2n(CCC)c1=O` [MRS 1754] yielded a remaining activity at 1.25 µM [1, 36] of 97.4%, a remaining activity at 1.25 µM [1, 37] of 101% and a remaining activity at 3.75 µM [2, 36] of 97.6%. It also gave a remaining activity at 3.75 µM [2, 37] of 95.8%.
In the case of `COc1cc(C)c(/C=C/C(C)=C/C=C/C(C)=C/C(=O)O)c(C)c1C` [Acitretin], the remaining activity at 1.25 µM [1, 38] is reported as 96.4% and the remaining activity at 3.75 µM [2, 38] is reported as 96.3%.
